The text below walks through data of patent publication US10080728B2, “Hemostatic agent” (priority 2015, dated 2018).

The subject of series [1] is postoperative pain. Put plainly: Postoperative pain syndrome after laparoscopic cholecystectomy, VAS (Example 2.8). The series is classed as in vivo, human. As for the experimental part: Evaluation of efficiency of the claimed substance for pain reduction was studied in patients suffering the postoperative pain syndrome. After laparoscopic cholecystectomy the claimed substance was applied onto the affected areas of the patients in the form of a solution/spray in a concentration of 0.01% to 10%. As a comparison preparation for surface anesthesia oxybuprocaine was used. To evaluate efficiency the change in the pain sensation intensity on the visual analog scale (VAS) in 1 minute after application/administration of the preparation and after 2 days in case of everyday application was used.

The subject of series [2] is corneal sensitivity of the rabbit's eye. Put plainly: Topical (corneal) anesthetic activity in rabbit's eye (Example 2.1). The series is classed as in vivo, rabbits. To be noted: 0.5% aqueous solution into the conjunctival sac of the rabbit's eye. As for the experimental part: A study to determine anesthetic activity was carried out in unanesthetized rabbits, which were placed in a special box with a hole to restrain the animal's head. The study was conducted to determine the threshold of sensitivity of the rabbit's eye to a tactile impact. For this purpose, a thin metal wire was used without injuring the cornea. The examined compound and the reference drug (oxybuprocaine) were administered into the conjunctival sac of the rabbit's eye in the form of a 0.5% aqueous solution with the total volume of up to 0.4 ml. Determination of topical anaesthesia was performed starting from the 1st minute of the study. The absence of the blinking reflex for 1 min (100 touches) was considered as an indicator of full anesthesia. Based on the collected data reflecting the changes in corneal sensitivity under the influence of the drugs, the beginning, the duration of complete (100%) anesthesia and the total duration of anesthesia were determined.
The relative activity of the tested compounds was calculated according to the Valet equation. The Rainier index is 852.4 for the claimed preparation and 63.5 for the reference preparation. The duration of anesthesia was 234 minutes for the claimed preparation and 24 min for oxibuprocaine.

Series [3] can be described thus: Nanostructure by electron-microscopic examination. The series is classed as physicochemical. As for the experimental part: (§1) The nanostructure is determined by the methods of dynamic light scattering using a Malvern Instruments Nanosizer Nano-ZS particle size analyzer and a FEI Tecnai G212Cryo12 transmission electron microscope enabling tp cool the samples at the boiling point of liquid nitrogen.

Series [4] can be described thus: Nanostructure by dynamic light scattering. In kind it is physicochemical. To be noted: preparation concentration 0.05 mg/ml. As for the experimental part: as §1
The test system of series [5] is capillary-parenchymal bleeding from liver wounds. Put plainly: Hemostatic activity of solution or spray on superficial liver wound (Example 1.1). In kind it is in vivo, rabbits. As for the experimental part:
(§2) The influence of the claimed substance on the hemostatic function was examined in rabbits of both sexes weighing 2000-4000 g. The experiments were carried out under general anesthesia. The animals underwent a laparotomy with a section made along the white line of the abdomen. The intestine was exteriorized into the wound and limited by wipes moistened with 0.9% sodium chloride solution (temperature […]), as well as the front surface of the liver. A superficial wound of the liver by the area of 1.5 cm^2 and the depth of 0.1 cm was inflicted by means of a razor.
Arrest of the capillary-parenchymal bleeding was carried out by uniform application of a 1% solution or a spray of the claimed substance on the entire area of the wound surface. At that, iron subsulfat was used for comparison of the bleeding arrest time. Hemostatic activity was evaluated by the change of the bleeding intensity.

Series [6] has as its system pain with soft corn. Put plainly: Anesthetic activity, pain with soft corn, VAS (second Example 1.8). The series is classed as in vivo. To be noted: soft corns. As for the experimental part:
Evaluation of the claimed substance's anesthetic activity was studied when dispersing a spray containing 0.01-10% of the preparation, or when applied at a concentration of 0.01% to 10% onto a bandaging material or a plaster for application onto the wound surface. An iron subsulfate solution was used as a reference. For efficiency evaluation the change in the pain sensation intensity on the visual analog scale (VAS) from 0 to 10 points in 1 minute after application of the product and after 2 days in everyday use was used.

Series [7] deals with chest pain and bloody sputum. Put plainly: Inhalation in chronic obstructive pulmonary disease: chest pain VAS and blood in sputum (Example 2.13). The series is classed as in vivo, human. To be noted: for Pain sensation intensity on a visual analog scale: chronic obstructive pulmonary disease, inhalation by nebulizer.
In series [8] the test system is bleeding and pain after medical interventions. Put plainly: Bleeding and pain in ENT, upper respiratory and digestive systems interventions (Example 2.17). In kind it is in vivo, human. As for the experimental part: Evaluation of the claimed substance efficiency for reduction of bleeding and pain in ENT, upper respiratory and digestive systems pathologies, in the course of instrumentation studies of these systems. Patients with various medical interventions after treatment with haemostatic purpose and pain reduction were treated with the claimed preparation. An iron subsulfate solution was used as a reference. For efficiency evaluation the change in the pain sensation intensity on the visual analog scale (VAS) from 0 to 10 points was used.

In series [9] the test system is itch at genital candidiasis. Description: Itch reduction at genital candidiasis, ISS (Example 2.3). To be noted: rounded to the higher value. In kind it is in vivo. As for the experimental part:
Evaluation of the claimed substance's anesthetic activity to reduce itch at genital candidiasis was studied when applied onto mucosae in the form of a 0.01% to 10% solution or by administering vaginal suppositories containing the claimed substance. To evaluate the efficiency the change in the itch sensation intensity on the Itch Severity Score (ISS) in 1 minute after application/administration of the product and after 5 days in case of everyday administration was used.

Series [10] deals with bleeding from liver wounds. Put plainly: Hemostatic activity together with aluminum sulfate gel or silver nitrate solution (Example 1.6). The series is classed as in vivo, rabbits. As for the experimental part: as §2, with “razor. […] An animal model was used in the experiment, as described in Example No. 4. Hemostatic activity was evaluated by the change of the bleeding intensity.” for “razor.”

Series [11] has as its system eyeball pain. Put plainly: Eyeball pain in posttraumatic processes, VAS (Example 2.16). The series is classed as in vivo, human. To be noted: eyeball lesions, instilled into the conjunctival sac. From the text: Evaluation of efficiency of the claimed substance for eyeball pain reduction in posttraumatic processes. The claimed substance solution was instilled into the conjunctival sac of patients with various lesions of the eyeball, including after surgery. As a reference, diclofenac eye drops were used. For efficiency evaluation the change in the pain sensation intensity on the visual analog scale (VAS) from 0 to 10 points was used.

Where [12] appears, read: 1 minute after application of the preparation.

Take `CCCCOc1cc(C(=O)OCCN(CC)CC)ccc1N` [Oxybuprocaine, oxybuprocaine]: the entries for the “Pain sensation intensity on a visual analog scale” value in [1] (setting [12]), in series [1] (before treatment) and in [1] (in 2 days (daily administration)) were 2.2 +/− 0.4, 7.6 +/− 0.8 and 0.5 +/− 0.1, respectively. The “Rainier index (relative activity, Valet equation)” value in series [2] is listed as 63.5. Further, in series [2], the duration of anesthesia was found to be 24 min.
For the compound “polyammonia methanediamine chloride [the claimed preparation]”, the size of globules in series [3] is on record as 10-15 nm. Also, in series [4], the “size of globules in solution” value is on record as 10-15 nm. Also, in series [2], the “Rainier index (relative activity, Valet equation)” value came out at 852.4 and the duration of anesthesia is 234 min.
Take Ferric Subsulfate [iron subsulphate]: the results for the “Relative intensity of bleeding from liver wounds” value in [5] (180 seconds after application) and in [5] (before application) were 652.6 ± 108.2 mg/min and 1326.4 ± 128.5 mg/min, respectively. In addition, the “Pain sensation intensity on a visual analog scale” value is recorded as 4.2 +/− 0.2 points in series [6] (before treatment); 4.5 +/− 0.4 points in [6] (in 1 minute); 3.9 +/− 0.3 points in series [6] (in 2 days, everyday use); 4.2 +/− 0.7 in series [7] (before treatment); 4.4 +/− 0.7 in series [7] (in 1 minute); 4.2 +/− 0.7 in series [7] (in 5 days). The “Pain sensation intensity on a visual analog scale” value in series [8] (before treatment) is given as 4.7 +/− 0.5 points; in [8] (in 1 minute) it was 4.5 +/− 0.4 points; in series [8] (in 10 minute), 4.6 +/− 0.5 points. Moreover, in series [7] (in 1 minute), the “Presence of bloody sputum” value is reported as “+++”. Moreover, the results for the “Itch intensity on the Itch Severity Score (ISS) scale” value in series [9] (setting [12]) and in series [9] (in 5 days (for daily administration)) were 4 points and 5 points, respectively.
With `O=[N+]([O-])[O-].[Ag+]` [Silver nitrate solution (1:200), Silver nitrate], the “Relative intensity of bleeding” value in [10] (120 seconds after application) is 1035.7 ± 119.0 mg/min; in [10] (before application), 1437.5 ± 141.6 mg/min.
Regarding `O=C(O)Cc1ccccc1Nc1c(Cl)cccc1Cl` [Diclofenac solution, Diclofenac], the “Pain sensation intensity on a visual analog scale” value was 6.9 +/− 0.8 points in series [11] (before treatment), 7.1 +/− 0.5 points in series [11] (in 1 minute) and 7.2 +/− 0.6 points in series [11] (in 10 minute).
